Source: ChEMBL document CHEMBL3507680, “University of Dundee, Gates Library screen for HepG2 cell viability”

Test: Human HepG2 cell viability assay in 384 well format
Format: toxicity, cell-based
Set-up: dose 125 nL, time 70.5 hour; cytotoxicity at 70.5 h: concentration not given beside the values
Details: HepG2 cells, read-out: Inhibition

| SMILES | cytotoxicity at 70.5 h [%] |
| --- | --- |
| COCCN(C)C(=O)Nc1cc2c(cc1SC)OCCO2 | 10.9 |
| COc1ccccc1C(O)CNC(=O)Nc1ncccc1C (stereo not given) | 7.49 |
| O=C1NCCC12CN(CC1CC1)CC21CCNCC1 (stereo not given) | -6.52 |
| Cc1cc(CN(C)C(=O)NC2CCCN(c3ncccn3)C2)no1 (stereo not given) | -3.61 |
| Cn1cnnc1CNC(=O)Nc1ccc(OC2CCC2)c(F)c1 | -4.19 |
| CCN(CC)c1ncccc1CNCc1cc2ccccc2s1 | -2.63 |
| CCOCCN1CCC(C(=O)c2cc(F)ccc2F)CC1 | 17.7 |
| O=c1[nH]nc(CNc2cncc(Br)c2)[nH]1 | 29.9 |
| O=C([C@@H]1CN(Cc2nccs2)C[C@H]2OCC[C@H]21)N1CCOCC1 | -7.1 |
| CN(C)[C@H]1CCN(c2ccnc(C(=O)NCc3ccco3)c2)C1 | -5.04 |
| c1cncc(-c2nnc([C@H]3CCN(CC4CCCCC4)C3)o2)c1 | -6.55 |
| COc1ccc2c(C)c(C(=O)NC3CCOCC3)oc2c1 | -0.242 |
| N#Cc1cccc(CN2CC[C@@H]3[C@@H]2CC(=O)N3Cc2cccnc2)c1 | -18.9 |
| Nc1cc(-c2c[nH]nc2C2CCN(C(=O)C3CCCC3)C2)ccn1 (stereo not given) | 5.65 |
| CN(CC(N)=O)C(=O)CCCn1ccc2cc(Cl)ccc21 | 10.8 |
| CS(=O)(=O)N1CCCC(Cc2cncc(-c3ccccc3C(=O)O)n2)C1 (stereo not given) | -12.4 |
| O=C(NC1CC1)c1cc2c(nc1O)CC(c1cccs1)CC2=O (stereo not given) | -11.9 |
| CS(=O)(=O)NCc1cnc2n1CCN(Cc1ccccn1)CC2 | -1.27 |
| Cn1ncnc1NCc1ccccc1Cl | -15.3 |
| COCCC(=O)N1C[C@@H]2COC[C@]2(COCc2cccnc2)C1 | -13.6 |
| CSCC(CCO)NC(=O)Nc1ccc(C)cc1Br (stereo not given) | 0.54 |
| CC(C)[C@]1(O)CN(C(=O)CNC(N)=O)C[C@H]1C | -0.763 |
| Cc1c(CNC(=O)c2cn(CCC3CCCCN3)nn2)cnn1C (stereo not given) | -1.47 |

| SMILES | cytotoxicity at 70.5 h [%] |
| --- | --- |
| CCc1nccn1C1CCCN(C(=O)c2cc(C3CC3)on2)C1 (stereo not given) | -6.97 |
| CCn1cc(NC(=O)c2cccc(OCC(F)(F)F)n2)cn1 | -7.52 |
| CCNC(=O)N1CCC2(CC1)CCn1c(C3CC3)cnc12 | 30.6 |
| CCc1noc(C2CCCCN2C(=O)c2cc(C)n(C)n2)n1 (stereo not given) | 16.6 |
| O=C(C1CCOCC1)N1CCOC(CC2CCCCC2)C1 (stereo not given) | -8.55 |
| CC1CCN(CC(O)CNc2ccc(Cl)cn2)CC1 (stereo not given) | -1.66 |
| Cc1ccc(C2CCCN2Cc2nc(-c3ccco3)no2)cc1 (stereo not given) | -1.81 |
| Cc1cccc(CO[C@@H]2C[C@H]3CN(c4ncccn4)CCN3C2)n1 | -1.58 |
| COc1ccc(CNC(=O)c2ccoc2CN2CCNC(=O)C2)cc1 | 22.4 |
| Cc1noc(CN2CCN(c3cncc(Cl)n3)CC2)n1 | -4.58 |
| Cc1nc(CN2CCCC(NCc3ccsc3)C2)no1 (stereo not given) | 1.36 |
| CC(C)CN1C[C@H]2C[C@H](C(=O)N3CCCC3)[C@@H](C1)O2 | -2.66 |
| CC(Nc1nc(-c2ccccc2)nc2c1CCNCC2)c1cccnc1 (stereo not given) | 2.48 |
| CN(C)CCN1C(=O)CCCC12CCCN(C(=O)c1cc[nH]n1)C2 (stereo not given) | -4.9 |
| Cc1nn(C)c2c(=O)n(CC(=O)NCCC(C)C)ccc12 | -5.71 |
| CCc1nc(C2CCCN(C(=O)NC(C)C)C2)no1 (stereo not given) | 21.2 |
| CCc1cnc(NCc2nc(COC)no2)nc1 | -11.1 |
| Cc1ncc(CNC(=O)CCc2cccs2)c(C2CCCN2C)n1 (stereo not given) | -4.28 |
| Cc1nn(CC(=O)N2CCN(c3ncccn3)CC2)c(C)c1Cl | 21.2 |
| Cc1noc(C2CCN(C(=O)C3CCCO3)CC2)n1 (stereo not given) | -9.25 |
| CC(=O)N1CCC2(CC1)CN(C(=O)C1CC1)c1ccc(F)cc12 | -0.352 |
| CCC(NC(=O)CCCN1CCCCC1)c1cn2cccnc2n1 (stereo not given) | -0.954 |
| CN(C)C1CCCN(C(=O)NCCC(C)(C)C)C1 (stereo not given) | 16.4 |

| SMILES | cytotoxicity at 70.5 h [%] |
| --- | --- |
| CCN(C(c1cccnc1)c1cc(C)cc(C)c1)S(C)(=O)=O (stereo not given) | -9.96 |
| CC(=O)c1c(F)cccc1NC1CCN(C(=O)CC(C)C)CC1 | 12.4 |
| c1ccc(CN2Cc3[nH]nc(COc4cccnc4)c3C2)nc1 | -7.63 |
| O=C(C1CCC1)N1CCC2(CCN(Cc3cccc(F)c3)CC2)CC1 | 18.6 |
| Cc1nc(NCC(O)CN2CCCCCC2)c2c(C)nn(C)c2n1 (stereo not given) | -8.64 |
| Cc1ccc(CN2CCN(Cc3ccncc3)[C@@H]3CS(=O)(=O)C[C@@H]32)cc1 | -7.92 |
| Cc1cccc(NC2CCN(C(=O)Nc3cc(F)cc(F)c3)CC2)n1 | 42.8 |
| Cc1cnn(C2CCCN(C(=O)c3cn(-c4ccccc4)nc3C)C2)c1 (stereo not given) | -6.2 |
| CCOC[C@H]1CC[C@H]2[C@H](CCN2C(=O)c2cnccn2)O1 | -4.15 |
| Cc1cc(C(=O)N[C@H]2CN(CCC(N)=O)C[C@@H]2C2CC2)sc1C | 9.55 |
| CCCC(C#N)NC(=O)Cc1csc(CC)n1 (stereo not given) | -0.509 |
| CC(CNC(=O)c1ccco1)N1CCc2sccc2C1 (stereo not given) | -4.45 |
| COc1c(C2CCCN2C(=O)c2cnn(C)c2C2CC2)c(C)nn1C (stereo not given) | -2.81 |
| CCNC(=O)CCC(=O)NC1(c2cccc(C(F)(F)F)c2)CCC1 | 16.4 |
| CN(CC(=O)NC(C)(C)C)Cc1nc(-c2ccccc2)c[nH]1 | 39 |
| O=c1cc(Cn2ccnc2)nc2n1CCCN(Cc1cccs1)C2 | -16.6 |
| Cc1c(C2SCC(=O)Nc3c2cnn3C(C)(C)C)cnn1C (stereo not given) | -10.1 |
| CN1C[C@@H](NC(=O)CC(C)(C)C)C[C@H]1c1nc(-c2cnccn2)no1 | -0.594 |
| Cc1noc(C)c1CSCc1nc(N)c2ccccc2n1 | 0.626 |
| COc1ccc(CN2CCN(C(C)=O)CC2)cc1SC(F)(F)F | 0.0728 |
| COc1ccc2c(c1)OCC(Cc1ccc(N)nc1C)C2 (stereo not given) | -8.63 |
| Cn1nnc2c1CCN(Cc1ccccn1)C2COCc1ccccc1 (stereo not given) | 14.7 |
| Cc1nc(Oc2ccccc2F)sc1C(=O)O | -11.4 |

| SMILES | cytotoxicity at 70.5 h [%] |
| --- | --- |
| Cc1cccc(C(C)CNS(=O)(=O)CCCC#N)c1 (stereo not given) | -8.11 |
| Cn1ncnc1CNc1ccc2c(c1)N(C(=O)OC(C)(C)C)CCC2 | -8.19 |
| O=C(CCc1ccccc1)N1CCCCC1C1OCCO1 (stereo not given) | -3.98 |
| Cc1cccc2c1CCN(c1cc(N3CCCC3CO)ncn1)C2 (stereo not given) | -10.5 |
| CC(C)C(=O)NS(=O)(=O)CCc1ccccc1 | -12.8 |
| COC(=O)N1CCC2(CC1)N=C(CCC(C)C)NC2=O | -8.4 |
| COCC(C)NC(=O)c1cc(Br)c2c(c1)OCCO2 (stereo not given) | -10.9 |
| Cc1nccc(C2CN(Cc3cc[nH]n3)CCO2)n1 (stereo not given) | -15.2 |
| CSc1ccc(OCCN2CCNC(=O)CC2)cc1 | -7.88 |
| Cc1nc(C(=O)N2CCN(S(C)(=O)=O)CC2)c(-c2cccc(F)c2)s1 | 9.8 |
| CN1CCC2(CCN(Cc3nccs3)CC2)C1=O | -1.5 |
| O=C(NCc1cccnc1)[C@@H]1CC[C@@H]2[C@@H](CCN2c2ncc(F)cn2)O1 | -3.65 |
| COCCn1c2c(ccc1=O)CC(NS(C)(=O)=O)CC2 (stereo not given) | 16 |
| CC(C)Nc1nc(O)cc(C2CC(=O)N(Cc3ccccn3)C2)n1 (stereo not given) | -5.33 |
| CCNC(=O)CCC(=O)NC(C)Cc1ccccc1Br (stereo not given) | 4.19 |
| CC(=O)N1CCN(c2ccccc2CNc2cncc(C)c2)CC1 | 4.13 |
| COc1ccc([C@@H]2CN(C(=O)CCCc3cn[nH]c3)C[C@H]2N(C)C)cc1 | 9.02 |
| CCCC(=O)Nc1cccc(C(=O)N(C)CCCC2CCCO2)c1 (stereo not given) | 2.48 |
| Cc1ccc2c(cnn2CCC(=O)NCc2csc(C)n2)c1 | -14.7 |
| COc1ccc(-c2nc(CN3CCc4c(ncn4C)C3)cs2)cc1 | 21.3 |
| O=C(N1CCCC1)N1CCc2ncnc(C3CCOC3)c2CC1 (stereo not given) | -9.08 |
| Cc1cc(C)c2nc(C3CC3)cc(C(=O)N3CCCC3C(N)=O)c2c1 (stereo not given) | 26.2 |
| Cc1nnc(C(C)N(C)Cc2c(C)nn(-c3ccccc3C)c2C)o1 (stereo not given) | 2.96 |

| SMILES | cytotoxicity at 70.5 h [%] |
| --- | --- |
| Cc1ncccc1C(=O)N1CCC2(CCc3ccccc3C(=O)N2)C1 (stereo not given) | 15.5 |
| COc1ccccc1OCCN1CCCCC1Cn1cncn1 (stereo not given) | 23.7 |
| Cn1cccc1C(=O)N1CC[C@H]2[C@@H]1CCC(=O)N2CC1CC1 | 3.01 |
| CC(C)Cc1nc(CN2CCC3(CCCO3)CCC2=O)no1 (stereo not given) | 0.922 |
| CNC(=O)C1CN(C(C)C)CCN1c1ncccn1 (stereo not given) | 2.44 |
| CC1c2ncc(Cn3cccn3)n2CCN1Cc1cccnc1 (stereo not given) | -1.36 |
| Fc1ccc(-c2c[nH]c([C@@H]3COCCN3)n2)cc1 | -9.31 |
| N#CCc1cccc(C(=O)N2CCN(CC(O)c3ccccc3)CC2)c1 (stereo not given) | 2.39 |
| COc1cccc(CN2C[C@H]3CCNCC[C@H]3S2(=O)=O)c1 | 18.8 |
| O=C(CCc1ccco1)NS(=O)(=O)N1CCOc2ccccc21 | -1.31 |
| COC(=O)N1CCC(CNC(=O)C2CC2)CC1 | -18.1 |
| Cc1ncc2c(n1)CN(Cc1nc(C)c(C)o1)CC2 | -100 |
| CCc1cnc(COc2ccc(OC3CCCCNC3=O)cc2)o1 (stereo not given) | -4.27 |
| CC(NC(=O)c1ccoc1)C(=O)N(C)Cc1cccc(C(F)(F)F)c1 (stereo not given) | 9.42 |
| C[C@@H]1CN(S(C)(=O)=O)C[C@]12CCN(Cc1cccnc1)C2=O | 14.9 |
| COc1ccc(-c2cccc(-c3ccn(CCN(C)C)n3)c2)nn1 | -3.58 |
| CC(NC(=O)N(C)Cc1ccc(Cl)s1)c1ccccn1 (stereo not given) | 1.2 |
| CC(C)c1nc(CN(C)C2CCN(CCc3ccncc3)C2)no1 (stereo not given) | -2.44 |
| Cc1cc(NC(=O)CN2CCCC2c2c(C)nn(C)c2Cl)on1 (stereo not given) | -0.864 |
| Cc1cnc(C(=O)N2CCNCC2C(=O)NCc2ccncc2)cn1 (stereo not given) | 3.98 |
| O=S(=O)(Cc1ccccc1F)Cc1nnnn1C1CC1 | -14.6 |
| Cn1cccc1C(=O)OCCNC(=O)c1ccccc1 | -10.7 |
| COc1ccccc1[C@@H]1CN(C(=O)Cc2csc(C)n2)C[C@H]1C(=O)O | 12.8 |
